Results as given in ChEMBL document CHEMBL4483862, “Open-source discovery of chemical leads for next-generation chemoprotective antimalarials” (2018).

Test system: Plasmodium berghei
Experiment: Luciferase/luciferin-expressing antifolate-resistant parasites were used to infect a culture of HepG2 cells that were pre-incubated with compounds. Infected hepatocytes emit light due to the luciferase reaction. Assay results are presented as the percent inhibition of light emission compared to control. […]
Format: functional
Conditions: sporozoite; for IC90: read-out: LUCIFERASE INFECTION ASSAY - IC90

SMILES: CN1N=C2c3ccccc3CCC2C1c1ccc(C(F)(F)F)cc1 (stereo not given)
- IC50 (PBLUC_HILL_SLOPE 1.95, PBLUC_R_SQUARED 0.843, read-out: LUCIFERASE INFECTION ASSAY - IC50): 0.537 µM
- IC90: 1.66 µM

SMILES: COc1ccc(C(=O)NCC(C)(C)SCc2c(C)cc(C)cc2C)cc1
- IC50 (PBLUC_HILL_SLOPE 1.94, PBLUC_R_SQUARED 0.532, read-out: LUCIFERASE INFECTION ASSAY - IC50): 3.09 µM
- IC90: > 8.88 µM

SMILES: CN(c1ccccc1)S(=O)(=O)c1ccc(NC(=O)c2cccs2)cc1
- IC50 (PBLUC_HILL_SLOPE 1.98, PBLUC_R_SQUARED 0.132, read-out: LUCIFERASE INFECTION ASSAY - IC50): 2.73 µM
- IC90: 8.27 µM

SMILES: COc1cc(NC(=O)N2CCc3nc(Nc4cc(Cl)cc(Cl)c4)ncc3C2)cc(OC)c1OC
- IC50 (PBLUC_HILL_SLOPE 1.96, PBLUC_R_SQUARED 0.41, read-out: LUCIFERASE INFECTION ASSAY - IC50): 3.52 µM
- IC90: > 6.54 µM

SMILES: CC(C)(C)c1cc(C(=O)N/N=C/c2ccc([N+](=O)[O-])s2)[nH]n1
- IC50 (PBLUC_HILL_SLOPE 1.97, PBLUC_R_SQUARED 0.294, read-out: LUCIFERASE INFECTION ASSAY - IC50): 3.6 µM
- IC90: > 10.3 µM

SMILES: O=C1NC(=O)/C(=C/c2cccc(C#Cc3ccccc3)c2)S1
- IC50 (PBLUC_HILL_SLOPE 1.96, PBLUC_R_SQUARED 0.068, read-out: LUCIFERASE INFECTION ASSAY - IC50): 6.6 µM
- IC90: > 10.8 µM

SMILES: Fc1ccc(/C=N/n2c(-c3ccc(Cl)cc3)cs/c2=N\CC2CCCO2)cc1 (stereo not given)
- IC50 (PBLUC_HILL_SLOPE 2, PBLUC_R_SQUARED 0.363, read-out: LUCIFERASE INFECTION ASSAY - IC50): 5.58 µM
- IC90: > 10 µM

SMILES: Nc1ncc(-c2ccc(-c3ccccc3)cc2F)cc1-c1cncc2ccccc12
- IC50 (PBLUC_HILL_SLOPE 1.93, PBLUC_R_SQUARED 0.0355, read-out: LUCIFERASE INFECTION ASSAY - IC50): > 8.43 µM
- IC90: > 8.43 µM

SMILES: Cc1[nH]c2ccccc2c1C(=O)COc1ccc(N(C)S(=O)(=O)c2ccccc2F)cc1
- IC50 (PBLUC_HILL_SLOPE 1.92, PBLUC_R_SQUARED 0.479, read-out: LUCIFERASE INFECTION ASSAY - IC50): 5.26 µM
- IC90: > 10 µM

SMILES: Cc1ccc(-c2cnn3c(NCCN(C)C)cc(C)nc23)cc1
- IC50 (PBLUC_HILL_SLOPE 1.98, PBLUC_R_SQUARED 0.569, read-out: LUCIFERASE INFECTION ASSAY - IC50): 3.5 µM
- IC90: 10.6 µM

SMILES: CN(C)Cc1ccc(-c2ccccc2CNC(=O)CC2CC3CCC2C3)cc1 (stereo not given)
- IC50 (PBLUC_HILL_SLOPE 2, PBLUC_R_SQUARED 0.172, read-out: LUCIFERASE INFECTION ASSAY - IC50): > 10 µM
- IC90: > 10 µM

SMILES: Cc1ccc(NC2c3ccccc3-c3ccccc32)cc1
- IC50 (PBLUC_HILL_SLOPE 2, PBLUC_R_SQUARED 0.71, read-out: LUCIFERASE INFECTION ASSAY - IC50): 6.95 µM
- IC90: > 10 µM

SMILES: CN1/C(=C\C(=O)CSc2nc(N)c3ccsc3n2)C(C)(C)c2ccccc21
- IC50 (PBLUC_HILL_SLOPE 1.96, PBLUC_R_SQUARED 0.352, read-out: LUCIFERASE INFECTION ASSAY - IC50): 8.34 µM
- IC90: > 10 µM

SMILES: CC(Sc1nnc(-c2ccc(C(C)(C)C)cc2)o1)C(=O)NCc1ccccc1Cl (stereo not given)
- IC50 (PBLUC_HILL_SLOPE 1.93, PBLUC_R_SQUARED 0.876, read-out: LUCIFERASE INFECTION ASSAY - IC50): 4.14 µM
- IC90: > 10 µM

SMILES: Cc1ccc(C)c(Sc2ccc(NC(=O)CN3C(=O)NC(Cc4ccccc4)C3=O)cc2)c1 (stereo not given)
- IC50 (PBLUC_HILL_SLOPE 1.97, PBLUC_R_SQUARED 0.872, read-out: LUCIFERASE INFECTION ASSAY - IC50): 5.94 µM
- IC90: > 10 µM

SMILES: CC(C)c1ccc(/C=C2\CCn3c2nc(=O)c2ccccc23)cc1
- IC50 (PBLUC_HILL_SLOPE 2.01, PBLUC_R_SQUARED 0.333, read-out: LUCIFERASE INFECTION ASSAY - IC50): 4.19 µM
- IC90: > 10.4 µM

SMILES: O=C(NC(=S)Nc1ccc(Oc2cc(C(F)(F)F)cc(C(F)(F)F)c2)cc1)c1ccccc1
- IC50 (PBLUC_HILL_SLOPE 1.93, PBLUC_R_SQUARED 0.641, read-out: LUCIFERASE INFECTION ASSAY - IC50): 1.37 µM
- IC90: 4.3 µM

SMILES: O=C(CN1CCN(S(=O)(=O)c2cccs2)CC1)Nc1ccccc1C(=O)c1ccccc1
- IC50 (PBLUC_HILL_SLOPE 1.98, PBLUC_R_SQUARED 0.361, read-out: LUCIFERASE INFECTION ASSAY - IC50): 5.33 µM
- IC90: > 10 µM

SMILES: Cc1cc(C(=O)Nc2ccc(OCc3ncc(C(F)(F)F)cc3Cl)cc2)no1
- IC50 (PBLUC_HILL_SLOPE 1.94, PBLUC_R_SQUARED 0.889, read-out: LUCIFERASE INFECTION ASSAY - IC50): 0.429 µM
- IC90: 1.33 µM

SMILES: CCC(=O)Nc1c(-c2nc3ccccc3[nH]2)c(C)c(C)n1C1CCCC1
- IC50 (PBLUC_HILL_SLOPE 2, PBLUC_R_SQUARED 0.418, read-out: LUCIFERASE INFECTION ASSAY - IC50): 6.01 µM
- IC90: > 9.42 µM

SMILES: O=C(c1ccccc1)c1ccc(OCC(O)CNC2CCCCCCC2)cc1 (stereo not given)
- IC50 (PBLUC_HILL_SLOPE 1.94, PBLUC_R_SQUARED 0.684, read-out: LUCIFERASE INFECTION ASSAY - IC50): 6.28 µM
- IC90: > 10 µM

SMILES: Cc1ccc2[nH]c(=S)n(-c3cc(Cl)ccc3C)c(=O)c2c1
- IC50 (PBLUC_HILL_SLOPE 1.97, PBLUC_R_SQUARED 0.142, read-out: LUCIFERASE INFECTION ASSAY - IC50): 9.2 µM
- IC90: > 10.4 µM

SMILES: Cc1ccc(NC(=O)Cn2ccccc2=O)cc1S(=O)(=O)N1CCCCC1
- IC50 (PBLUC_HILL_SLOPE 1.99, PBLUC_R_SQUARED 0.304, read-out: LUCIFERASE INFECTION ASSAY - IC50): 5.37 µM
- IC90: > 10 µM

SMILES: Cc1csc(CNc2nc(-c3cccnc3)nc3sc(C)c(C)c23)n1
- IC50 (PBLUC_HILL_SLOPE 1.92, PBLUC_R_SQUARED 0.84, read-out: LUCIFERASE INFECTION ASSAY - IC50): 1.79 µM
- IC90: 5.63 µM

SMILES: OCCNc1nc(Oc2ccc(-c3ccccc3)cc2)nc2ccccc12
- IC50 (PBLUC_HILL_SLOPE 1.95, PBLUC_R_SQUARED 0.572, read-out: LUCIFERASE INFECTION ASSAY - IC50): 0.64 µM
- IC90: 1.97 µM

SMILES: Fc1cccc(-n2ccnc2SCc2nc3ccccc3s2)c1
- IC50 (PBLUC_HILL_SLOPE 1.97, PBLUC_R_SQUARED 0.394, read-out: LUCIFERASE INFECTION ASSAY - IC50): 6.86 µM
- IC90: > 10 µM

SMILES: CN(C)c1cccc(-c2cnc3cnc(-c4cccc(C(=O)NCCO)c4)cn23)c1
- IC50 (PBLUC_HILL_SLOPE 1.98, PBLUC_R_SQUARED 0.622, read-out: LUCIFERASE INFECTION ASSAY - IC50): 5.11 µM
- IC90: > 8.22 µM

SMILES: C=CCn1c(C)cc(C(=O)COC(=O)C(O)(c2ccccc2)c2ccccc2)c1C
- IC50 (PBLUC_HILL_SLOPE 1.92, PBLUC_R_SQUARED 0.565, read-out: LUCIFERASE INFECTION ASSAY - IC50): 1.84 µM
- IC90: 5.78 µM

SMILES: Cc1cccc(NC(=O)c2ccc(Cl)c(S(=O)(=O)Nc3c(C)n(C)n(-c4ccccc4)c3=O)c2)n1
- IC50 (PBLUC_HILL_SLOPE 1.97, PBLUC_R_SQUARED 0.221, read-out: LUCIFERASE INFECTION ASSAY - IC50): 9.2 µM
- IC90: > 10 µM

SMILES: O=C(N/N=C/C1=C(N2CCOCC2)C(=C/c2ccc(Cl)cc2Cl)/CC1)c1ccco1
- IC50 (PBLUC_HILL_SLOPE 1.95, PBLUC_R_SQUARED 0.652, read-out: LUCIFERASE INFECTION ASSAY - IC50): 2.18 µM
- IC90: 6.76 µM

SMILES: COc1cc2nc(-c3ccccc3)nc(N3CCN(CCN4CCCC4)CC3)c2cc1OC
- IC50 (PBLUC_HILL_SLOPE 1.93, PBLUC_R_SQUARED 0.643, read-out: LUCIFERASE INFECTION ASSAY - IC50): 2.46 µM
- IC90: 7.65 µM

SMILES: Cn1c(N)c(C(=O)CSc2nnc(-c3ccccc3)c(-c3ccccc3)n2)c(=O)n(C)c1=O
- IC50 (PBLUC_HILL_SLOPE 1.94, PBLUC_R_SQUARED 0.495, read-out: LUCIFERASE INFECTION ASSAY - IC50): 3.75 µM
- IC90: > 10 µM

SMILES: CSc1c(C#N)c(-c2ccc(Cl)cc2)nn1C(=O)C(C)C
- IC50 (PBLUC_HILL_SLOPE 1.94, PBLUC_R_SQUARED 0.662, read-out: LUCIFERASE INFECTION ASSAY - IC50): > 10.3 µM
- IC90: > 10.3 µM

SMILES: CC(=O)n1nc(NCc2cccc(Cl)c2)nc1NCc1cccc(Cl)c1
- IC50 (PBLUC_HILL_SLOPE 1.95, PBLUC_R_SQUARED 0.375, read-out: LUCIFERASE INFECTION ASSAY - IC50): 4.3 µM
- IC90: > 8.46 µM

SMILES: Cc1cc(C)c(C(=O)C2CCN(C(=O)c3cccs3)CC2)c(C)c1
- IC50 (PBLUC_HILL_SLOPE 1.97, PBLUC_R_SQUARED 0.657, read-out: LUCIFERASE INFECTION ASSAY - IC50): 3.99 µM
- IC90: > 9.66 µM

SMILES: CCOC(=O)c1sc(N)c(C#N)c1CSc1ncc(C(F)(F)F)cc1Cl
- IC50 (PBLUC_HILL_SLOPE 1.96, PBLUC_R_SQUARED 0.0831, read-out: LUCIFERASE INFECTION ASSAY - IC50): > 10 µM
- IC90: > 10 µM

SMILES: CN1CCN(c2ccc(-c3cn4c(-c5cccc(Cl)c5)cnc4cn3)cn2)CC1
- IC50 (PBLUC_HILL_SLOPE 1.98, PBLUC_R_SQUARED 0.725, read-out: LUCIFERASE INFECTION ASSAY - IC50): 5.39 µM
- IC90: > 8.15 µM

SMILES: CC(C)(C)c1cc(C(=O)Nc2cc(-c3cccs3)nn2-c2ccc(I)cc2)n(Cc2ccccc2)n1
- IC50 (PBLUC_HILL_SLOPE 1.99, PBLUC_R_SQUARED 0.0392, read-out: LUCIFERASE INFECTION ASSAY - IC50): 4.11 µM
- IC90: > 5.43 µM

SMILES: O=C(Nc1ccc(F)cc1F)Nc1cc(Cl)sc1Cl
- IC50 (PBLUC_HILL_SLOPE 1.97, PBLUC_R_SQUARED 0.405, read-out: LUCIFERASE INFECTION ASSAY - IC50): 6.86 µM
- IC90: > 10.2 µM

SMILES: COc1ccc2nc(-c3ccccc3)cc(NCCN(C)C)c2c1
- IC50 (PBLUC_HILL_SLOPE 1.97, PBLUC_R_SQUARED 0.162, read-out: LUCIFERASE INFECTION ASSAY - IC50): 4.55 µM
- IC90: > 10.3 µM
